Legend:
Assay type in all cases: binding
Settings in all cases: Compound Concentration 10 µM
panel of 442 kinases [1] = biological target: T1, panel of 442 kinases (Homo sapiens, UniProt P10721, D816H)
T1 construct: purchased KINOMEscan
Text: (§1) We assessed the selectivity of members of this scaffold using the KINOMEscan methodology across a near comprehensive panel of 442 kinases [[18,27]].

panel of 442 kinases [2] = biological target: T2, panel of 442 kinases (Homo sapiens, UniProt Q8TD08)
T2 construct: purchased KINOMEscan
T2 sequence (Q8TD08 1-544): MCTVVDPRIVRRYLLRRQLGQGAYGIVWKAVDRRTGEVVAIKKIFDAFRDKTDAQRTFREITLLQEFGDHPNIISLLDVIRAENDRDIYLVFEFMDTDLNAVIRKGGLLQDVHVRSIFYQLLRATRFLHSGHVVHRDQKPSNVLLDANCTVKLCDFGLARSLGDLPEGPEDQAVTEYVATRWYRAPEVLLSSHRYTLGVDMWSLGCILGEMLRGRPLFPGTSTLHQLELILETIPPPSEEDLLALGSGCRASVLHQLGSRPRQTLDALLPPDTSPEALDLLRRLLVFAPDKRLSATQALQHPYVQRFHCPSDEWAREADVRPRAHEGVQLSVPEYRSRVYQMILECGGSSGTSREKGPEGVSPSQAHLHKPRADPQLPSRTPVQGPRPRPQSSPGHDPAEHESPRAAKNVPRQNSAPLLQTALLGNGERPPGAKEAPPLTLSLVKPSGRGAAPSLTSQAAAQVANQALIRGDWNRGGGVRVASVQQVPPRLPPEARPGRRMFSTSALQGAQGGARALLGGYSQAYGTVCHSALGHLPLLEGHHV
Text: as §1

panel of 442 kinases [3] = biological target: T3, panel of 442 kinases (Homo sapiens, UniProt P49336)
T3 construct: purchased KINOMEscan
T3 sequence (P49336 whole entry): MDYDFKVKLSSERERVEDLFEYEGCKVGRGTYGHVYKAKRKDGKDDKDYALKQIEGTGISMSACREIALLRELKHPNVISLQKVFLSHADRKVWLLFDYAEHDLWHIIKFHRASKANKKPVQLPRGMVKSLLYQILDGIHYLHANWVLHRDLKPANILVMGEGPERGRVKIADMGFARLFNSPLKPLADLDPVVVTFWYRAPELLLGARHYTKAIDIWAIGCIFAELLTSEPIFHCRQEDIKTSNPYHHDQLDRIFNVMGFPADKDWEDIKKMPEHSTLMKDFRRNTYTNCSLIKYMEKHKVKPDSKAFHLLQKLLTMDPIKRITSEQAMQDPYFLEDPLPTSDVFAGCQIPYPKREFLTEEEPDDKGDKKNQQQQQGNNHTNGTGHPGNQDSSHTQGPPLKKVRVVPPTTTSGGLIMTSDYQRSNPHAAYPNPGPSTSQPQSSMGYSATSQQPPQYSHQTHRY
Text: as §1

T1 sequence (P10721 26-976 D816H): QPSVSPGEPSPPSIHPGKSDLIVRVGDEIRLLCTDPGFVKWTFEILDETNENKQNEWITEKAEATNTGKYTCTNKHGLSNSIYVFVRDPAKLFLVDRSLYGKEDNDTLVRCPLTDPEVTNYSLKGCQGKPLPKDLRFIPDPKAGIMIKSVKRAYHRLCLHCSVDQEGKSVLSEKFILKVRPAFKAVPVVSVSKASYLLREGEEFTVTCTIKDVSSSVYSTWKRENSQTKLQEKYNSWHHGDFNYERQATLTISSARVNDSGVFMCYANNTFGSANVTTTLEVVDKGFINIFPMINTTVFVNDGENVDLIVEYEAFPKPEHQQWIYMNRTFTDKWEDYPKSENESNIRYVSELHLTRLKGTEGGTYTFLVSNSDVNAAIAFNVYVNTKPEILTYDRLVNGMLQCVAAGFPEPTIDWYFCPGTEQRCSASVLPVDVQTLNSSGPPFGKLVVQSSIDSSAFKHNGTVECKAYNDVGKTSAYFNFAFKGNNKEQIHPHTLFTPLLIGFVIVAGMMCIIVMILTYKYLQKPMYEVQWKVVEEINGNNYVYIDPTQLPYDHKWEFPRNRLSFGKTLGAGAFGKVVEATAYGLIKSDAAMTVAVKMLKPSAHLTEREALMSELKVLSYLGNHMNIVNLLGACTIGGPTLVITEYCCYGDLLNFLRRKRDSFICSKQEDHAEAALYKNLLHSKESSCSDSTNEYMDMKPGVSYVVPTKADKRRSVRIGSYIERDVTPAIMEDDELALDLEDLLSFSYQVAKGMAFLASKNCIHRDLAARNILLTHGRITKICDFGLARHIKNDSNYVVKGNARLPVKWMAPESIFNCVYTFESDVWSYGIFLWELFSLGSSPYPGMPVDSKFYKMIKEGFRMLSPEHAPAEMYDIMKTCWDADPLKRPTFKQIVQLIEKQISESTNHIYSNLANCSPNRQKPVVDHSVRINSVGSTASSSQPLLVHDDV

Row | Structure (SMILES) | KINOMEscan: KIT(D816H) (panel of 442 kinases [1]) | KINOMEscan: ERK8 (panel of 442 kinases [2]) | KINOMEscan: CDK8 (panel of 442 kinases [3])
1 | COc1cc(C(=O)N2CCC(N3CCN(C)CC3)CC2)ccc1Nc1ncc2c(n1)N(C1CCCC1)c1ccccc1C(=O)N2C [Compound 25, 11-cyclopentyl-2-((2-methoxy-4-(4-(4-methylpiperazin-1-yl)piperidine-1-carbonyl)phenyl)amino)-5-methyl-5H-benzo[e]pyrimido[5,4-b][1,4]diazepin-6(11H)-one] | 100 | 99 | 100
2 | CCOc1cc(C(=O)N2CCC(N3CCN(C)CC3)CC2)ccc1Nc1ncc2c(n1)N(C1CCCC1)c1ccccc1C(=O)N2C [Compound 26] | 100 | 100 | 95
3 | COc1cc(C(=O)N2CCC(N3CCN(C)CC3)CC2)ccc1Nc1ncc2c(n1)N1CCc3cccc(c31)C(=O)N2C [Compound 24] |  |  | 91
4 | COc1cc(C(=O)N2CCC(N3CCN(C)CC3)CC2)ccc1Nc1ncc2c(n1)N(C)c1ccccc1C(=O)N2C [15 (LRRK2-IN-1)] | 100 | 100 | 100
